From US8871751B2, “Compositions and methods relating to nuclear hormone and steroid hormone receptors including inhibitors of estrogen receptor alpha-mediated gene expression and inhibition of breast cancer” (The Board of Trustees of the University of Illinois, priority 2008, dated 2014) come the findings set out here.

The target in assay [1] is T1, human ERα binding to flcERE (Homo sapiens, UniProt P03372).
T1 construct: Full-length FLAG-tagged human ERα was expressed and purified as described previously (27); FLAG; made in house
T1 sequence (P03372 1-595): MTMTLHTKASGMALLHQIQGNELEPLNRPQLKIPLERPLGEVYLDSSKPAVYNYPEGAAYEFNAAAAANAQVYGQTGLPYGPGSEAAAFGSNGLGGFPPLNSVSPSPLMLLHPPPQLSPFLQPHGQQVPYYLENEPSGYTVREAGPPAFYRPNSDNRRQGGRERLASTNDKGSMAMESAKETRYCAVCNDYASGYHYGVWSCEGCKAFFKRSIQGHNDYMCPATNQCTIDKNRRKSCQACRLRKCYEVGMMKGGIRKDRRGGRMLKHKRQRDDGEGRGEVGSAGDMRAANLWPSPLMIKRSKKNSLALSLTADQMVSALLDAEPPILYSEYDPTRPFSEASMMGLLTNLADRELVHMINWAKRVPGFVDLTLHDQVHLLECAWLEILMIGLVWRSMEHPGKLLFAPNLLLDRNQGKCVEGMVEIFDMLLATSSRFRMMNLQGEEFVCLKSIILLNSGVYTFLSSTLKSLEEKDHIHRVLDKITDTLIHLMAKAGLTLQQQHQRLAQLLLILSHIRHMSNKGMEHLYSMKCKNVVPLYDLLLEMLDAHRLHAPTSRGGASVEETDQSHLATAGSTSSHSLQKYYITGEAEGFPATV
The assay is described as follows: FAMA: inhibition of ERα binding to flcERE. The following applies: for IC50: FAMA; for inhibition of binding of ERα to the flcERE: 5 μM TPBM. The protocol: Prior to screening, the 10 mM library stocks were diluted to produce replica libraries in 384-well plates containing each small molecule at 0.25 mM (in DMSO). In our initial studies we were concerned that forming the flcERE-ERα complex first and then adding the candidate small molecule inhibitors would miss small molecules that bind at the interface. We therefore screened using the “sequential” method in which the candidate small molecules were first incubated with ERα and followed by addition of the flcERE. The assay for binding of ERα to the flcERE is a modification of our earlier assay (27). Assays were carried out at room temperature in black wall 384-well microplates (Greiner/Bio-One) in a total volume of 10 μl in buffer containing 20 mM Tris pH 7.5, 10% glycerol, 0.2 mM EDTA, 2 mM DTT, 100 mM KCl, 0.5 ng/μl poly dl:dC, […] bovine serum albumin and 100 nM 17β-estradiol (E2). For high throughput screening, a master mix without ERα and probe was prepared at 4° C. The master mix was divided into 2 parts. ERα was added to one part to 5 nM in the final assays. 7 μl of the ERα-containing mix was then dispensed into each well of a 384-well plate on ice. 100 nl of the compounds being tested was then added using a pin-transporter (V & P Scientific, Inc, CA) to a final concentration of 2.5 μM. The samples were mixed using the pin-transporter and sedimented by centrifugation for 2 min. at 4° C. and incubated on ice for 10 min. The flcERE probe was added to the other aliquot of the mix to 1 nM. 3 μl of the mix containing the flcERE probe was added to each well containing ERα and the test compound. The samples were mixed using the pin-transporter, the plates were briefly centrifuged and incubated at room temperature for 10 min. and fluorescence anisotropy (FA) was measured using a BMG PheraStar (BMG Labtech) microplate reader (module: 485 520) with excitation at 485λ and emission at 520λ. To identify small molecules that were highly fluorescent, or quench fluorescence, fluorescence intensity was also measured.
(§1) Dose response curves for selected compounds were carried out as described for the HTS screen except that each well contained the indicated concentration of test compound. PR assays were carried out in the same buffer used for ERα assays and contained 1 nM flcPRE and 11 nM PR-B and 100 nM progesterone. The buffer used for AR was similar but also contained 5 μM ZnCl, 5 mM NaF, 0.6 μM CHAPS and 100 nM dihydrotestosterone. AR assays contained 1 nM flcARE and 50 nM full-length wild-type AR.

Assay [2] has as its target T2, human androgen receptor (AR) binding to flARE (Homo sapiens, UniProt P10275).
T2 construct: AR assays contained 1 nM flcARE and 50 nM full-length wild-type AR; FLAG; made in house
T2 sequence (P10275 1-920): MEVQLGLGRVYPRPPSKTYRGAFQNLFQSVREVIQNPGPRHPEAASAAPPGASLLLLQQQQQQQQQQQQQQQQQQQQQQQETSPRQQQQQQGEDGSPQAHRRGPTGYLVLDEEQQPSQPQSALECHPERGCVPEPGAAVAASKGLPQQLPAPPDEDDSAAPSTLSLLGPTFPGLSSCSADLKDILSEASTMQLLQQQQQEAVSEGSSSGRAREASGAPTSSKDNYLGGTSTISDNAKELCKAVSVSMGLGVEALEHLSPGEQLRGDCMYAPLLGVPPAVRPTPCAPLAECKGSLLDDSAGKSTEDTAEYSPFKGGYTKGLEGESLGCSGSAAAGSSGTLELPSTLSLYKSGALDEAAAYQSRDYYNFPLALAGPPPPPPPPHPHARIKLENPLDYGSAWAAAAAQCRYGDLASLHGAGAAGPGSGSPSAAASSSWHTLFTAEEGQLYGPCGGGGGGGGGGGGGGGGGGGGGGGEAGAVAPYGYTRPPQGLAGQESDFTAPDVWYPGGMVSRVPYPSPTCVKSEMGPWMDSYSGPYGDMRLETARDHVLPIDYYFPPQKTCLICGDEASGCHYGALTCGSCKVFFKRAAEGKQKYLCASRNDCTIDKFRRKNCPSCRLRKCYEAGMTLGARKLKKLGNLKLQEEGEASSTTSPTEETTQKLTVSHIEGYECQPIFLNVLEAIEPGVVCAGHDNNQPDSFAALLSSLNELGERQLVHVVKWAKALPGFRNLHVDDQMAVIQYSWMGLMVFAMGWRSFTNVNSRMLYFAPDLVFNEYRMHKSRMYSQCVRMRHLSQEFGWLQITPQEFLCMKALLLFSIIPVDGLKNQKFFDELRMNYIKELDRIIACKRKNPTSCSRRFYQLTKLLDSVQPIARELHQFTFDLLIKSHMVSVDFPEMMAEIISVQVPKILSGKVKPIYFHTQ
The assay is described as follows: FAMA: inhibition of AR binding to flcARE. Conditions: binding to HRE, 5 concentrations 0.5-10 μM, sequential method. The protocol: as §1
Specificity was evaluated in dose-response studies by quantitative FAMA using purified full-length human PR binding to a fluorescein-labeled progesterone/glucocorticoid response element (flPRE) and full-length human androgen receptor (AR) binding to a fluorescein-labeled androgen response element (flARE).

The mark [3] stands for this setting: binding to HRE, 5 concentrations 0.5-10 μM, sequential method, read-out: IC50 ERα.

Each structure is given as a SMILES string. “And” between values parts separate entries of the source, which are not always exact repeats. Equal entries are not always repeated. Where two headings read alike, the source gives them in different places.

For `CN1CCC(C#N)c2ccccc21` (stereo not drawn) [Compound 1529], the half-inhibitory concentration (IC50) in assay [1] (setting [3]) amounted to 4 µM; in assay [2], 5.2 µM.

In the case of `Cn1c(=O)c2nc(CSCc3ccccc3)[nH]c2n(C)c1=O` [Compound 95910, 8-Benzylsulfanylmethyl-1,3-dimethyl-3,7-dihydro-purine-2,6-dione], the results for the “inhibition of binding of ERα to the flcERE” value in assay [1] (absence of zinc) and in assay [1] (presence of 50 μM zinc) were 76±7% and 68±6%, respectively. Besides, the 50% inhibitory concentration (IC50) is 3 µM in assay [1] (setting [3]); ~3 µM and 3.5 µM in assay [1] (read-out: IC50 for inhibition of ERα binding to the flcERE); 7.6 µM in assay [2].

On to `CN(C)CCCn1c2c3ccccc3ccc2c2oc(=O)c3ccccc3c21` [Compound 638432], for which the IC50 in assay [1] (setting [3]) turned out to be 2.5 µM; in assay [2] it was 5 µM.
